Data on three compounds can be found in ChEMBL document CHEMBL3627608, “Crystal structures of human RIP2 kinase catalytic domain complexed with ATP-competitive inhibitors: Foundations for understanding inhibitor selectivity” (Bioorg Med Chem, 2015).

Assay [1] has as its target T1, Kinase suppressor of Ras 2 (Homo sapiens) (UniProt Q6VAB6).
T1 sequence (whole entry): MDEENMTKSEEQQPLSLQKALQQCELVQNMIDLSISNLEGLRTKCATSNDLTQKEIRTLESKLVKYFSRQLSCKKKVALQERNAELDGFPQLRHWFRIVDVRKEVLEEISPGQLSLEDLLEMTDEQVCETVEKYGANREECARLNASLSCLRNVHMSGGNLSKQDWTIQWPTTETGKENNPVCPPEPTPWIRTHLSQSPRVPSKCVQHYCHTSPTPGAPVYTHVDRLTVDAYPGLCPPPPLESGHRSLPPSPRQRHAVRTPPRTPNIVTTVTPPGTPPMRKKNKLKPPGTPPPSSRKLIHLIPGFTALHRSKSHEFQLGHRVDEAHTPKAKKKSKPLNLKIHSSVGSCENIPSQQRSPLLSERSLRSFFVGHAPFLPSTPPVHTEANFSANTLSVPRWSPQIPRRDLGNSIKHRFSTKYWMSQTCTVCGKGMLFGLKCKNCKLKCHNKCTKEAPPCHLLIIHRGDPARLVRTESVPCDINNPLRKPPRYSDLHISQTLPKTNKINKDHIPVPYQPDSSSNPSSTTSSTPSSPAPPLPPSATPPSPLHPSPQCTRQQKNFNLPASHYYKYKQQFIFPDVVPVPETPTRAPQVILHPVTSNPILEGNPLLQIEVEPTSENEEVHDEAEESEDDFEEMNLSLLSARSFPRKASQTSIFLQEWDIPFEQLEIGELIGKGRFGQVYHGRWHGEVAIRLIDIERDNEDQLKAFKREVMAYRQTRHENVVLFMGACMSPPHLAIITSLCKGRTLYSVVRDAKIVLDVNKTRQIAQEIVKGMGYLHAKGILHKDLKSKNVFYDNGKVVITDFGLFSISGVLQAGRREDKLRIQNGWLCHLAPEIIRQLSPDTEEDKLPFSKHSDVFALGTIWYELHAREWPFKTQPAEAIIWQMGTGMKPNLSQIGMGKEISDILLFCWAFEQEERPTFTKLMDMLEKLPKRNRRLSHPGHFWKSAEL
Briefly: Inhibition of KSR2 (unknown origin) at 10 uM after 120 mins P33 radiolabeled kinase activity assay.

The target of assay [2] is T2, Tyrosine-protein kinase Mer (Homo sapiens) (UniProt Q12866).
T2 sequence (whole entry): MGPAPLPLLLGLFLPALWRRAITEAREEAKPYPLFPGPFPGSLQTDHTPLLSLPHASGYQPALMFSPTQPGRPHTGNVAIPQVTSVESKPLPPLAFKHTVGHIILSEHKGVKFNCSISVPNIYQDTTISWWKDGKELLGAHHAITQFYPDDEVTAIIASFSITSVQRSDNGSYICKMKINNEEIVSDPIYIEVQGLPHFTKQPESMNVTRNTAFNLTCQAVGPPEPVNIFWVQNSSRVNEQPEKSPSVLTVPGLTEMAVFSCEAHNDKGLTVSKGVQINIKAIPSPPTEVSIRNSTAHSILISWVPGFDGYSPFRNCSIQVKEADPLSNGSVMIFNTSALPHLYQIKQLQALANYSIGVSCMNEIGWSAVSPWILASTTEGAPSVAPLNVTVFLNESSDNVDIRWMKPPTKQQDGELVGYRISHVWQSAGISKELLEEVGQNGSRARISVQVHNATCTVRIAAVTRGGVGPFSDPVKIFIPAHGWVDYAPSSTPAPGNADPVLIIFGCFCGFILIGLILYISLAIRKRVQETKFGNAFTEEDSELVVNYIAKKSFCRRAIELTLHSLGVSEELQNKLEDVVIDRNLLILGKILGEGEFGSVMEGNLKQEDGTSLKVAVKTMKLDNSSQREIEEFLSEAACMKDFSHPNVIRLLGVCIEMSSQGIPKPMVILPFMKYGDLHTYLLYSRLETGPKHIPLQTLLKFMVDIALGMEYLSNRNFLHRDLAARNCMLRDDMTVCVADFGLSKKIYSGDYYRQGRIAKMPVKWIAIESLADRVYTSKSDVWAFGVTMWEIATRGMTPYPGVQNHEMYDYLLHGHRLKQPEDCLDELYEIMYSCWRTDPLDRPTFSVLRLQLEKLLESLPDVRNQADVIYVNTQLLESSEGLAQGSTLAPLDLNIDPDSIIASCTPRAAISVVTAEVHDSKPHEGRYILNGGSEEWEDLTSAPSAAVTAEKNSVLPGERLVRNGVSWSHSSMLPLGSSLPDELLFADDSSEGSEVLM
The experiment in a line: Inhibition of c-MER (unknown origin) at 10 uM after 120 mins P33 radiolabeled kinase activity assay.

The target in assay [3] is Serine/threonine-protein kinase N3 (Homo sapiens) (UniProt Q6P5Z2). Briefly: Inhibition of PKN3 (unknown origin) at 10 uM after 120 mins P33 radiolabeled kinase activity assay.
Assay [4] concerns the target T3, Serine/threonine-protein kinase haspin (Homo sapiens) (UniProt Q8TF76).
T3 sequence (whole entry): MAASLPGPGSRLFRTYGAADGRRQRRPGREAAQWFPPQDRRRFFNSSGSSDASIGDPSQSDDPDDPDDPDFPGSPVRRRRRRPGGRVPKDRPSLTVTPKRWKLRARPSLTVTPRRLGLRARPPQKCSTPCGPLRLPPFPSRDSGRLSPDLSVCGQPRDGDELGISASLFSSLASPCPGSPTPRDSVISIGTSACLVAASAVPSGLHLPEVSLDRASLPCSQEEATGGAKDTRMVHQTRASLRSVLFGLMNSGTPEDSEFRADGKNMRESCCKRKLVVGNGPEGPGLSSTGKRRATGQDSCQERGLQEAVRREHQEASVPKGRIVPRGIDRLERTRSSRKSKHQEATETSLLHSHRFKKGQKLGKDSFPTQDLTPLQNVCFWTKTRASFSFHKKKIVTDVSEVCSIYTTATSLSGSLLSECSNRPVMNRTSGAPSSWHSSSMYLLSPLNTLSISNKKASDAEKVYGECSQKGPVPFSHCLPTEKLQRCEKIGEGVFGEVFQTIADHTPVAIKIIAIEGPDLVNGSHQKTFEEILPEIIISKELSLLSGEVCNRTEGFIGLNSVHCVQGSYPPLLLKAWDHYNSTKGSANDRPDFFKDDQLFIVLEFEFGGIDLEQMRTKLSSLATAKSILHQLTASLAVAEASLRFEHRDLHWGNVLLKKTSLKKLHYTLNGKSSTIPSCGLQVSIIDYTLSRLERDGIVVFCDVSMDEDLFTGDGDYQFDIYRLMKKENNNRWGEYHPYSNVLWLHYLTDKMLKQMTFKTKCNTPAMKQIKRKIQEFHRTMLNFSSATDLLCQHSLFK
The experiment in a line: Inhibition of Haspin (unknown origin) at 10 uM after 120 mins P33 radiolabeled kinase activity assay.

The target of assay [5] is RAF proto-oncogene serine/threonine-protein kinase (Homo sapiens) (UniProt P04049). The experiment in a line: Inhibition of RAF1 (unknown origin) at 10 uM after 120 mins P33 radiolabeled kinase activity assay.
RAF proto-oncogene serine/threonine-protein kinase (Homo sapiens), sequence (P04049 whole entry): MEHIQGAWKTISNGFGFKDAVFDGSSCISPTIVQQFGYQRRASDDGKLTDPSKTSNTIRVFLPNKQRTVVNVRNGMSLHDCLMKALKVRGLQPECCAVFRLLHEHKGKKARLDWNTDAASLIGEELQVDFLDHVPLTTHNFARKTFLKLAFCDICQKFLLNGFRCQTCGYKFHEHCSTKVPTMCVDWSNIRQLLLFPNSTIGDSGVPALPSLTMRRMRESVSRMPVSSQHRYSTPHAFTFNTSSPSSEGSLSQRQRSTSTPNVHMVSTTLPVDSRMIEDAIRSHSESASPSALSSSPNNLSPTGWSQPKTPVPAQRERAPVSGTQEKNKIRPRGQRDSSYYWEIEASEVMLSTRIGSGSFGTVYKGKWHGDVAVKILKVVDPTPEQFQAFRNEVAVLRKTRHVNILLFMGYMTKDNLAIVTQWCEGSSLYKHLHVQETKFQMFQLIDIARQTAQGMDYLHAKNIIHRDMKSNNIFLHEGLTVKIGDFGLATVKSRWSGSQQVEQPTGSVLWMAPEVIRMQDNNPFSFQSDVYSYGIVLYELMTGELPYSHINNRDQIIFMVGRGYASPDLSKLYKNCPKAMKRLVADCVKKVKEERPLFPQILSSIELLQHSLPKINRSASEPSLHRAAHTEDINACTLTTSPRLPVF

Serine/threonine-protein kinase N3 (Homo sapiens), sequence (Q6P5Z2 whole entry, looked up): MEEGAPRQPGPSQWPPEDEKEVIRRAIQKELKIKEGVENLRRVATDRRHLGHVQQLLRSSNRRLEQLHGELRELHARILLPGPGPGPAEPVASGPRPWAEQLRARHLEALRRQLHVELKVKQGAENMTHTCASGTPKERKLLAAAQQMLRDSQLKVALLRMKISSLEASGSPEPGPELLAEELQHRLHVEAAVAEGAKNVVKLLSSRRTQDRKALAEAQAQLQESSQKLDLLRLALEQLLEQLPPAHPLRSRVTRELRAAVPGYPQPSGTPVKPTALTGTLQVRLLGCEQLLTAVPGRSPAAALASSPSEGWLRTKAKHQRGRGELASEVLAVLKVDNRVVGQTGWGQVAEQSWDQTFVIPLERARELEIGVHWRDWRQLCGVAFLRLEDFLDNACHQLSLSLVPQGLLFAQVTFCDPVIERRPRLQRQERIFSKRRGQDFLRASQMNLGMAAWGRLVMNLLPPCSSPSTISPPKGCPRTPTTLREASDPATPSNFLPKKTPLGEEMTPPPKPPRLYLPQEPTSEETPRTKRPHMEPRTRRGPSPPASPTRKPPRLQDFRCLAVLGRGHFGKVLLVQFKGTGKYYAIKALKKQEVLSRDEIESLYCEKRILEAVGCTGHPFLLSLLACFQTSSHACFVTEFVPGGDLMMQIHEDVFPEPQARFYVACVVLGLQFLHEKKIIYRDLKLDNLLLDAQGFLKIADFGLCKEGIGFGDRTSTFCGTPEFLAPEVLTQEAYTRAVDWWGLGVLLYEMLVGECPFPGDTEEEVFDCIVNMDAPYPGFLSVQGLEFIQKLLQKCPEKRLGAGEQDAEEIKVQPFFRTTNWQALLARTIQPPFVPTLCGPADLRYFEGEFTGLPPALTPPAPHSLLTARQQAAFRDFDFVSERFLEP

As to `CS(=O)(=O)c1cccc(Nc2nccc(-c3sc(N4CCOCC4)nc3-c3cccc(NS(=O)(=O)c4c(F)cccc4F)c3)n2)c1`, the inhibition in assay [1] came out at 1.08%; in assay [2], 98.2%; in assay [3], 28.3%; in assay [4], 12.1%; in assay [5] it was 100%.
Regarding `CC(C)(C)c1cc(NC(=O)Nc2ccc(Oc3ccncc3)cc2)no1`, the inhibition is 3.41% in assay [1]; 77.9% in assay [2]; 31.5% in assay [3]; 12.3% in assay [4]; 98.8% in assay [5].
Turning to `COCCNC(=O)c1ccc2c(c1)nc(-c1cnc(-c3ccc(Cl)cc3)[nH]1)n2CCOC`, the inhibition in assay [1] worked out at 3.38%; in assay [2], 30.8%; in assay [3], 17.9%; in assay [4] it was 11.4%; in assay [5] it was 41.5%.
